# Results reported in ChEMBL document CHEMBL4706549, “Isoquinolinone derivatives as potent CNS multi-receptor D/5-HT/5-HT/5-HT/5-HT agents: Synthesis and pharmacological evaluation” (Eur J Med Chem, 2020).
# The source made the active and inactive calls. The rule behind the calls is not given here.
# What was measured:
# [1] = Therapeutic index, ratio of ED50 for toxicity in po dosed Kunming mouse assessed as catalepsy to ED50 for antipsychotic activity in Kunming mouse assessed as inhibition of apomorphine-induced climbing behavior; assay type: organism-based; settings: in vivo, read-out: Ratio ED50
# [2] = Therapeutic index, ratio of ED50 for toxicity in po dosed Kunming mouse assessed as catalepsy to ED50 for antipsychotic activity in Kunming mouse assessed as inhibition of MK801-induced locomotor activity; assay type: organism-based; settings: in vivo, read-out: Ratio ED50
# [3] = mouse, in vivo, po
# Description: Toxicity in po dosed Kunming mouse assessed as catalepsy
# Mus musculus [4] = species: Mus musculus; experiment: animal or person; settings: Kunming, po
# Mus musculus [5] = species: Mus musculus; experiment: animal or person; settings: Kunming, po; remark: listed apart in the source
# Description: Antipsychotic activity in Kunming mouse assessed as inhibition of MK801-induced locomotor activity administered orally 30 mins prior to MK801 challenge and measured for 90 mins
# D(2) dopamine receptor [6] = target: D(2) dopamine receptor (Rattus norvegicus, UniProt P61169); experiment: biochemical
# Description: Displacement of [3H]spiperone from D2 receptor in rat striatum measured after 15 mins by liquid scintillation counting method
# [7] = target: T1, 5-hydroxytryptamine receptor 1A (Rattus norvegicus, UniProt P19327); experiment: biochemical
# T1 sequence (P19327 whole entry): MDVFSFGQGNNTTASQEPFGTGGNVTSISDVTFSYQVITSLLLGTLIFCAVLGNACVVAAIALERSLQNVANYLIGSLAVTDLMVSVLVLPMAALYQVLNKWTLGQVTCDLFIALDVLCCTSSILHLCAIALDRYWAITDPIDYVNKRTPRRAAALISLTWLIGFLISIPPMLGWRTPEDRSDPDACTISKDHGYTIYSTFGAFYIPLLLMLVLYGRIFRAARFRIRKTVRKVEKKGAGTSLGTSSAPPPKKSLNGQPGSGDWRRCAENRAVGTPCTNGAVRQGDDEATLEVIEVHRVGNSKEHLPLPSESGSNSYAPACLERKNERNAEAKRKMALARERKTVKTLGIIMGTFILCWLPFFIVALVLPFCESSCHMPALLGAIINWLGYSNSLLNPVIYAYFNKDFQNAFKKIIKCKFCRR
# Description: Displacement of [3H](+)8-OH-DPAT from rat cerebral cortex 5HT1A receptor measured after 30 mins by liquid scintillation counting method
# [8] = target: 5-hydroxytryptamine receptor 2A (Rattus norvegicus, UniProt P14842); experiment: biochemical
# [9] = target: T2, 5-hydroxytryptamine receptor 2A (Homo sapiens, UniProt P28223); experiment: Antagonist activity at human 5HT2A receptor expressed in CHO-K1 cells assessed as inhibition of 5HT-induced calcium flux incubated for 60 mins at 37 degC followed by 15 mins incubation at room temperature and subsequent 5HT addition by calcium 4 dye based FLIPR assay; assay type: functional, cell-based
# D(1A) dopamine receptor = D(1A) dopamine receptor (Homo sapiens, UniProt P21728); experiment: Binding affinity to D1 receptor (unknown origin)
# [10] = target: Adrenergic receptor alpha-2 (Homo sapiens, UniProt P08913+P18825+P18089); experiment: Binding affinity to alpha2 adrenergic receptor (unknown origin); assay type: protein assay
# Histamine H3 receptor = Histamine H3 receptor (Homo sapiens, UniProt Q9Y5N1); experiment: Binding affinity to H3 receptor (unknown origin)
# [11] = target: Sodium-dependent serotonin transporter (Homo sapiens, UniProt P31645); experiment: Binding affinity to SERT (unknown origin)
# [12] = target: Sodium-dependent noradrenaline transporter (Homo sapiens, UniProt P23975); experiment: Binding affinity to NET (unknown origin)
# [13] = target: Sodium-dependent dopamine transporter (Homo sapiens, UniProt Q01959); experiment: Binding affinity to DAT (unknown origin)
# [14] = target: Sigma non-opioid intracellular receptor 1 (Homo sapiens, UniProt Q99720); experiment: Binding affinity to sigma 1 receptor (unknown origin)
# [15] = target: Sigma intracellular receptor 2 (Homo sapiens, UniProt Q5BJF2); experiment: Binding affinity to sigma 2 receptor (unknown origin)
# D(3) dopamine receptor = D(3) dopamine receptor (Homo sapiens, UniProt P35462)
# Description: Binding affinity to D3 receptor (unknown origin)
# [16] = target: 5-hydroxytryptamine receptor 2C (Rattus norvegicus, UniProt P08909)
# Description: Displacement of [3H]mesulergine from rat cerebral cortex 5HT2C receptor measured after 15 mins by liquid scintillation counting method
# Histamine H1 receptor [17] = target: Histamine H1 receptor (Cavia porcellus, UniProt P31389)
# Description: Displacement of [3H]pyrilamine from guinea pig cerebellum histamine H1 receptor measured after 60 mins by liquid scintillation counting method
# [18] = target: Voltage-gated inwardly rectifying potassium channel KCNH2 (Homo sapiens, UniProt Q12809)
# Description: Inhibition of human ERG expressed in HEK293 cells by whole-cell patch clamp method
# [19] = target: Adrenergic receptor alpha-1 (Rattus norvegicus, UniProt P15823+P23944+P43140)
# Description: Displacement of [3H]prazosin from rat cerebral cortex alpha1 adrenergic receptor measured after 60 mins by liquid scintillation counting method
# [20] = target: 5-hydroxytryptamine receptor 7 (Rattus norvegicus, UniProt P32305); experiment: biochemical
# [21] = Effect on total exploration time in Sprague-Dawley rat at 0.2 mg/kg, po measured after 1 hr by novel object recognition test; assay type: ADME, organism-based; settings: in vivo
# Rattus norvegicus = experiment: Cognitive enhancement effect in Sprague-Dawley rat assessed as increase in time spent in exploring novel object at 0.2 mg/kg, po administered 1 hr prior to acquisition trial and measured after 24 hrs by novel object recognition test; assay type: functional, organism-based
# [22] = Effect on spontaneous locomotor activity in Kunming mouse assessed as total distance traveled at 1 mg/kg, ig measured after 1 hr (reference value: 13579 +/- 8864 millimeter); assay type: ADME, organism-based; settings: in vivo, po
# [23] = Effect on spontaneous locomotor activity in Kunming mouse assessed as total distance traveled at 3 mg/kg, ig measured after 1 hr (reference value: 13579 +/- 8864 millimeter); assay type: ADME, organism-based; settings: in vivo, po
# [24] = Effect on spontaneous locomotor activity in Kunming mouse assessed as total distance traveled at 10 mg/kg, ig measured after 1 hr (reference value: 13579 +/- 8864 millimeter); assay type: ADME, organism-based; settings: in vivo, po
# [25] = Displacement of [3H]ketanserin from human 5HT2A receptor expressed in CHO-K1 cells measured after 20 mins
# D(2) dopamine receptor [26] = target: D(2) dopamine receptor (Homo sapiens, UniProt P14416); experiment: Binding affinity to D2 receptor (unknown origin)
# [27] = target: 5-hydroxytryptamine receptor 1A (Homo sapiens, UniProt P08908); experiment: Binding affinity to 5HT1A receptor (unknown origin)
# [28] = target: T2, 5-hydroxytryptamine receptor 2A; experiment: Binding affinity to 5HT2A receptor (unknown origin)
# [29] = target: 5-hydroxytryptamine receptor 2C (Homo sapiens, UniProt P28335); experiment: Binding affinity to 5HT2C receptor (unknown origin)
# Histamine H1 receptor [30] = target: Histamine H1 receptor (Homo sapiens, UniProt P35367); experiment: Binding affinity to H1 receptor (unknown origin)
# [31] = Toxicity in Kunming mouse assessed as change in body weight at 0.1 to 0.3 mg/kg, po administered for 28 days measured daily during compound dosing; assay type: organism-based; settings: in vivo, 672 h, dose 0.1-0.3 mg/kg, time 28 day
# Mus musculus [32] = species: Mus musculus; experiment: animal or person; settings: Kunming, po, 1.333 h
# [33] = target: 5-hydroxytryptamine receptor 6 (Homo sapiens, UniProt P50406)
# Description: Displacement of [3H]lysergic acid diethylamide from human recombinant 5HT6 receptor stably expressed in CHO cell membranes measured after 30 mins by liquid scintillation counting method
# Sequence of D(2) dopamine receptor (Rattus norvegicus, UniProt P61169) (P61169 whole entry): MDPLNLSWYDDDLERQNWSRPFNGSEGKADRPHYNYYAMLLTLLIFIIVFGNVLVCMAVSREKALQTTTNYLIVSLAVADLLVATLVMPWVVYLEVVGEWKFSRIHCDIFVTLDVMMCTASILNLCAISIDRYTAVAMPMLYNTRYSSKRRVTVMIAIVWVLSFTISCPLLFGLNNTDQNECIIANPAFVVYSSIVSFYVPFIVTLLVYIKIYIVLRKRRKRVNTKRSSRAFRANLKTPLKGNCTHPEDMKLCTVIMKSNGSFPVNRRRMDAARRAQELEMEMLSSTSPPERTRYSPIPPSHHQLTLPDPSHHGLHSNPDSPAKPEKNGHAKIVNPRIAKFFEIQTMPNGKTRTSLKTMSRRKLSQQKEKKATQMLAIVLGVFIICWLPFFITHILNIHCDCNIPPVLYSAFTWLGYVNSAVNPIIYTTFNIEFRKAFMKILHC
# Sequence of 5-hydroxytryptamine receptor 2A (Rattus norvegicus, UniProt P14842) (P14842 whole entry): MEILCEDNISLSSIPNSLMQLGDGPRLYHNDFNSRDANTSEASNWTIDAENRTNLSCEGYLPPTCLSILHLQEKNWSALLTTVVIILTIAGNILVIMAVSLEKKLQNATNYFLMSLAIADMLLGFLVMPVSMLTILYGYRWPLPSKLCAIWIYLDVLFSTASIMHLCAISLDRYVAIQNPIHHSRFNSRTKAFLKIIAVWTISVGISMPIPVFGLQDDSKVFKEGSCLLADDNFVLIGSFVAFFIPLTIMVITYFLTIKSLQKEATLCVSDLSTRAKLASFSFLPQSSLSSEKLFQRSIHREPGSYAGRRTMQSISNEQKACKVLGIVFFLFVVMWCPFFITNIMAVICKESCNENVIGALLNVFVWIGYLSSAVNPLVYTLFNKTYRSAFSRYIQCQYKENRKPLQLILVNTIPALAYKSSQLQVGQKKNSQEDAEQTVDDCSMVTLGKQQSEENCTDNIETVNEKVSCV
# Sequence of Histamine H1 receptor (Cavia porcellus, UniProt P31389) (P31389 whole entry): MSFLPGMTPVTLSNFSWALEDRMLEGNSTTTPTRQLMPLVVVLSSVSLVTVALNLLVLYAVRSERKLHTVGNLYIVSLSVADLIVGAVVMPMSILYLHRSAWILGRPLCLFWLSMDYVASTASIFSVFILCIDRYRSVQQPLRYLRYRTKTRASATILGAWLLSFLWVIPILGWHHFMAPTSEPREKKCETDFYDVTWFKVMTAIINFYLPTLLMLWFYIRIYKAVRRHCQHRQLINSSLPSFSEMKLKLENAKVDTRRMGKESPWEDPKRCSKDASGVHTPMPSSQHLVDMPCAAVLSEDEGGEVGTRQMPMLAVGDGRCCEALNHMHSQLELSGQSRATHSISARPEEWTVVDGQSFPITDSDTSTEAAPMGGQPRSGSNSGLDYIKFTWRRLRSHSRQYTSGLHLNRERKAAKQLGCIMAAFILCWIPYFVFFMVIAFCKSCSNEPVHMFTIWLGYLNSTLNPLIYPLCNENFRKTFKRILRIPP
# T2 sequence (P28223 whole entry): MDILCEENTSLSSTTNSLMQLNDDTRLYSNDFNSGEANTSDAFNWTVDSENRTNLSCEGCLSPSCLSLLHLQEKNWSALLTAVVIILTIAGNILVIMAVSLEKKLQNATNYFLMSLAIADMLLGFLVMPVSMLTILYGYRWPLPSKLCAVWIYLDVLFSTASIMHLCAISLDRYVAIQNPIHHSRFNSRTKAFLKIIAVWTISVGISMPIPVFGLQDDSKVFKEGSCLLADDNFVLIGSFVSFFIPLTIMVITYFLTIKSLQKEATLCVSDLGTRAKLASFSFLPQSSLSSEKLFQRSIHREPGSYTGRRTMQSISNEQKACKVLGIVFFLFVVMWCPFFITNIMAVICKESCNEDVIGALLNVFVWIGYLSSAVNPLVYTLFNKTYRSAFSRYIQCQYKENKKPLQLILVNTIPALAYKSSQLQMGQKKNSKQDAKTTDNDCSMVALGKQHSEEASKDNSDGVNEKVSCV
# Sequence of 5-hydroxytryptamine receptor 2C (Rattus norvegicus, UniProt P08909) (P08909 whole entry): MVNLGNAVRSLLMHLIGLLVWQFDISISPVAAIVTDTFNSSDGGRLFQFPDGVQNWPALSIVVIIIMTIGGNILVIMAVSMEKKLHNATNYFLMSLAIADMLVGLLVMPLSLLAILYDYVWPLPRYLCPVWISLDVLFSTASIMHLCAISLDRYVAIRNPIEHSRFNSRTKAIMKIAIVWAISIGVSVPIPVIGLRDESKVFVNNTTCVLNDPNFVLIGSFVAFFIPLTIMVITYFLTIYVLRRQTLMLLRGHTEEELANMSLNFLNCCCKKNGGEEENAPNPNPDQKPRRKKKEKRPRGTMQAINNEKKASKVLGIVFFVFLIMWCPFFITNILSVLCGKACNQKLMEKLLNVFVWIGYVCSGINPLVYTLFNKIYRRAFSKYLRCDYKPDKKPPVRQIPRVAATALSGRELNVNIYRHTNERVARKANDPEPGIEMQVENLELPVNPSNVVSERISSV
# Sequence of 5-hydroxytryptamine receptor 7 (P32305 whole entry): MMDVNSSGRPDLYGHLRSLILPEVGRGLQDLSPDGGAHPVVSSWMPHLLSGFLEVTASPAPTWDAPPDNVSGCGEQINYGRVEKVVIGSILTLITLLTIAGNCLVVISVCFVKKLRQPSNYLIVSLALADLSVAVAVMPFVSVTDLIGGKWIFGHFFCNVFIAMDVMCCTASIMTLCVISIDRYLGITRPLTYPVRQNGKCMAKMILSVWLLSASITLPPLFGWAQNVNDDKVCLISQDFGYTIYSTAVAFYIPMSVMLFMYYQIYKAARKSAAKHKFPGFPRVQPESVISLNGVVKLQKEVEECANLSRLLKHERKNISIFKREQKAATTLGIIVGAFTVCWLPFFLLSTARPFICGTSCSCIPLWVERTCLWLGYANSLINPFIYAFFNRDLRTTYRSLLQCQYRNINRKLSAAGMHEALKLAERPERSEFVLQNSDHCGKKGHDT
# Sequence of D(3) dopamine receptor (P35462 whole entry): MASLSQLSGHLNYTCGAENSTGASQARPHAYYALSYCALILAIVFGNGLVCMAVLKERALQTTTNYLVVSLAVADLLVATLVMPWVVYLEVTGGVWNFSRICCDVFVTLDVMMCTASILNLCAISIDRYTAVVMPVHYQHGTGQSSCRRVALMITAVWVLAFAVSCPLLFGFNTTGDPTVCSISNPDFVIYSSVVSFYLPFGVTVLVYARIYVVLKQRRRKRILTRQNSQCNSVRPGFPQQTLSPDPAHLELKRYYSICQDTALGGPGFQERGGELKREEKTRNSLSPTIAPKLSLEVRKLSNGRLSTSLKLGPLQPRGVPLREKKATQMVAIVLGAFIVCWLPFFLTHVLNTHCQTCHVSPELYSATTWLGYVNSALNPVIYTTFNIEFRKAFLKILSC
# Sequence of Sodium-dependent serotonin transporter (P31645 whole entry): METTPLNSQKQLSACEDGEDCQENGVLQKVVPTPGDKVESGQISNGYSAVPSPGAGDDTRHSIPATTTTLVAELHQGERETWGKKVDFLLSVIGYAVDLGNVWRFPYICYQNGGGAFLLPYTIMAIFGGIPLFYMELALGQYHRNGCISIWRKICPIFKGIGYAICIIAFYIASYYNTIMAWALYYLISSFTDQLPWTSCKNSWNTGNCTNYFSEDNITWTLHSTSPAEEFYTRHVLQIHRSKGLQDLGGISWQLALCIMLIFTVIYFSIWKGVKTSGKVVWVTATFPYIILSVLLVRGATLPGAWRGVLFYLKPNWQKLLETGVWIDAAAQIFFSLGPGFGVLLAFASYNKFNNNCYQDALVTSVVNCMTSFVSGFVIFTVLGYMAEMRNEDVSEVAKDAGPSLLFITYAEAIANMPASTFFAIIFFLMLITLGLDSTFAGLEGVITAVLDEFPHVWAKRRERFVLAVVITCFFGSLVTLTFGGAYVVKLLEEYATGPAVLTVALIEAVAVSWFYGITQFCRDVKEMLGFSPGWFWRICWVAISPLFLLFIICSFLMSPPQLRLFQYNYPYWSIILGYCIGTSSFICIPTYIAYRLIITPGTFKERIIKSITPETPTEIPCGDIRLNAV
# Sequence of Sodium-dependent dopamine transporter (Q01959 whole entry): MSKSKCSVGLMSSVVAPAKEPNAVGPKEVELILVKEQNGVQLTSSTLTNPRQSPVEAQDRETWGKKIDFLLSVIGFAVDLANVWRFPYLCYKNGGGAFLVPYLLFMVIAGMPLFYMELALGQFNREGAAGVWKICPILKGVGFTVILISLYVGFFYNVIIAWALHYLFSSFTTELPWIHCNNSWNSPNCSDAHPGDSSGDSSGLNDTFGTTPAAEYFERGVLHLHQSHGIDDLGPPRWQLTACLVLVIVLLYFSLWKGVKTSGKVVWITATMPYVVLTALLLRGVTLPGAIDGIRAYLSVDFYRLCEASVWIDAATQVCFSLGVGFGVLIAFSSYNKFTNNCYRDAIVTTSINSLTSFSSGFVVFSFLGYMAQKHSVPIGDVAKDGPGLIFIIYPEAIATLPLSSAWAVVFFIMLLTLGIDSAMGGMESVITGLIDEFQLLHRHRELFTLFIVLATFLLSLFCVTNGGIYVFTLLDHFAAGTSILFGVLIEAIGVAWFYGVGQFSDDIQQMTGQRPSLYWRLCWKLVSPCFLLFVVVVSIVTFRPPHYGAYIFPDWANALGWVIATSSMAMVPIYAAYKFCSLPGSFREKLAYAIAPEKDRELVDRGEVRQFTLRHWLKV
# Sequence of D(1A) dopamine receptor (P21728 whole entry): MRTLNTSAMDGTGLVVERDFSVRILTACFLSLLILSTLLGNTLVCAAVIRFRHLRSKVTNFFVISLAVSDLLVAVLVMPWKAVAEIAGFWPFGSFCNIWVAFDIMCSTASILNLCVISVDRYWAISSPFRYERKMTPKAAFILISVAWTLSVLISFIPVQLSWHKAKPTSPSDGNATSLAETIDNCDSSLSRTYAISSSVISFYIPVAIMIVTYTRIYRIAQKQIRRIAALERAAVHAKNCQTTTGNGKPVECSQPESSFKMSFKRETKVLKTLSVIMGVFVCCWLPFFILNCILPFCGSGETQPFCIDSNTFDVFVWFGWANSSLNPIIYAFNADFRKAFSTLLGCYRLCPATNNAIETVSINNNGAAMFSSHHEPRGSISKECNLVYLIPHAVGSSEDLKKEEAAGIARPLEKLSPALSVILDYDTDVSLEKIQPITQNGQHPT
Compound,Ki (D(2) dopamine receptor [6]) [nM],Ki [7] [nM],Ki [8] [nM],also measured
O=C(CCCN1CCC(O)(c2ccc(Cl)cc2)CC1)c1ccc(F)cc1 [HALOPERIDOL],–,–,–,selectivity ratio [1]: 3.5; selectivity ratio [2]: 2.9; ED50 [3]: 0.32 mg/kg; ED50 (Mus musculus [4]): 0.09 mg/kg; ED50 (Mus musculus [5]): 0.11 mg/kg
COc1ccc(N2CCN(CCCOc3ccc4c(c3)C(=O)N(C)CC4)CC2)cc1,> 10000,> 10000,> 10000,–
CN1CCc2ccc(OCCCN3CCN(c4ccccc4Cl)CC3)cc2C1=O,391,89.2,179,–
CN1CCc2ccc(OCCCN3CCC(c4noc5cc(F)ccc45)CC3)cc2C1=O,–,9.1,0.65,IC50 [9]: 46.3 nM; Ki (D(1A) dopamine receptor): > 1000 nM; Ki [10]: > 1000 nM; Ki (Histamine H3 receptor): > 1000 nM; Ki [11]: > 1000 nM; Ki [12]: > 1000 nM; Ki [13]: > 1000 nM; Ki [14]: > 1000 nM; Ki [15]: > 1000 nM; Ki (D(3) dopamine receptor): 226 nM; Ki [16]: 1690 nM; Ki (Histamine H1 receptor [17]): 1200 nM; IC50 [18]: 2310 nM; Ki [19]: 991 nM; Ki [20]: 4.9 nM
CN1CCc2ccc(OCCCCN3CCN(c4cccc(C(F)(F)F)c4)CC3)cc2C1=O,261,1040,132,–
CCN(C)C(=O)Oc1cccc([C@H](C)N(C)C)c1 [RIVASTIGMINE],–,–,–,Activity [21]: Non-Toxic; Activity (Rattus norvegicus): Active
COc1ccccc1N1CCN(CCCOc2ccc3c(c2)C(=O)N(C)CC3)CC1,896,1110,992,–
CN1CCc2ccc(OCC(F)CN3CCC(c4noc5cc(F)ccc45)CC3)cc2C1=O (stereo unspecified),359,68.2,23.7,–
CN1COc2ccc(OCCCN3CCC(c4noc5cc(F)ccc45)CC3)cc2C1=O,698,187,598,–
CN1CCc2ccc(OCCCN3CCN(c4ccccc4F)CC3)cc2C1=O,117,262,306,–
CN1CCc2ccc(OCCCN3CCN(c4ccccc4)CC3)cc2C1=O,> 10000,> 10000,> 10000,–
CN1CCc2ccc(OCCCCN3CCN(c4cccc5sccc45)CC3)cc2C1=O,162,431,–,–
CN1CCc2cc(OCCCN3CCC(c4noc5cc(F)ccc45)CC3)ccc2C1=O,> 10000,> 10000,692,–
CN1CCc2ccc(OCCCN3CCN(c4cccc5sccc45)CC3)cc2C1=O,–,65.2,–,–
O=C1CN=C(c2ccccc2Cl)c2cc([N+](=O)[O-])ccc2N1 [CLONAZEPAM],–,–,–,Activity [22]: 12188 mm; Activity [23]: 5784 mm; Activity [24]: 762 mm
CN1CCc2ccc(OCCCCN3CCN(c4cccc(Cl)c4Cl)CC3)cc2C1=O,316,119,216,–
CC1CCc2ccc(OCCCCN3CCC(c4nsc5ccccc45)CC3)cc2C1=O (stereo unspecified),> 10000,1300,890,–
CN1CCc2ccc(OCCCN3CCN(c4cccc(Cl)c4Cl)CC3)cc2C1=O,68.2,20.1,16.8,–

Compound,Ki (D(2) dopamine receptor [6]) [nM],Ki [7] [nM],Ki [8] [nM],also measured
CN1CCc2ccc(OCCCN3CCN(c4ccccn4)CC3)cc2C1=O,> 10000,> 10000,1160,–
CN1CCc2ccc(OCC(O)CN3CCC(c4noc5cc(F)ccc45)CC3)cc2C1=O (stereo unspecified),1240,856,768,–
CN1CCc2ccc(OCCCN3CCN(c4ccc5ccccc5n4)CC3)cc2C1=O,> 10000,10.2,> 10000,–
CCN1CCc2ccc(OCCCN3CCC(c4noc5cc(F)ccc45)CC3)cc2C1=O,249,198,92.1,–
CN1CCc2ccc(OCCCN3CCN(Cc4ccc5c(c4)OCO5)CC3)cc2C1=O,> 10000,18.3,25.9,–
COc1ccccc1N1CCN(CCCCOc2ccc3c(c2)C(=O)N(C)CC3)CC1,> 10000,> 10000,> 10000,–
CN1CCc2ccc(OCCCN3CCN(c4ncccn4)CC3)cc2C1=O,1370,59.3,65.3,–
CN1CCc2ccc(OCCCN3CCN(c4ccc(F)cc4)CC3)cc2C1=O,532,158,246,–
O=c1ccc2ccc(OCCCCN3CCN(c4cccc5sccc45)CC3)cc2[nH]1 [BREXPIPRAZOLE],–,–,–,Ki [25]: 0.47 nM
CN1CCc2ccc(OCCCN3CCN(c4ccc(Cl)cc4)CC3)cc2C1=O,268,356,589,–
CN1CCc2ccc(OCCCN3CCN(c4cccc(C(F)(F)F)c4)CC3)cc2C1=O,123,1040,102,–
O=C(CCCCN1CCC(c2noc3cc(F)ccc23)CC1)c1cc2c3c(c1)CCN3C(=O)CC2,–,–,–,Ki (D(2) dopamine receptor [26]): 2.9 nM; Ki [27]: 8.6 nM; Ki [28]: 0.72 nM; Ki [29]: 616 nM; Ki (Histamine H1 receptor [30]): 630 nM; Ki (D(3) dopamine receptor): 1.66 nM
CN1CCc2ccc(OCCCCN3CCC(c4noc5cc(F)ccc45)CC3)cc2C1=O,41.6,30.6,28.3,–
Cc1nc2n(c(=O)c1CCN1CCC(c3noc4cc(F)ccc34)CC1)CCCC2 [RISPERIDONE],–,–,–,Activity [21]: Non-Toxic; Activity [31]: Toxic; ED50 [3]: 1.62 mg/kg; ED50 (Mus musculus [4]): 0.02 mg/kg; ED50 (Mus musculus [5]): 0.04 mg/kg; ED50 (Mus musculus [32]): 0.04 mg/kg
Cn1ccc2ccc(OCCCN3CCC(c4noc5cc(F)ccc45)CC3)cc2c1=O,9.2,12.1,3.5,Ki [16]: 129 nM; Ki (Histamine H1 receptor [17]): 118 nM; Ki [33]: 167 nM; Ki [19]: 718 nM; Ki [20]: 109 nM
CN1CCc2ccc(OCCCN3CCC(C(=O)c4ccc(F)cc4F)CC3)cc2C1=O,902,> 10000,> 10000,–
CN1CCc2ccc(OCCN3CCC(c4noc5cc(F)ccc45)CC3)cc2C1=O,568,> 10000,> 10000,–
